How the values were obtained:
MtKARI = target: T1, MtKARI (Methanothermococcus thermolithotrophicus, UniProt A0A8X6EH16); assay: X-ray crystallography; format: binding; settings: open state, 2.2 A; crystal soaked with 50 mM L-tartrate, 20 mM NADP, 50 mM MgCl2; Mg2+-free, pH 6.5; substrate analogue at the nicotinamide site
T1 construct: gene ilvC; native full-length class I enzyme purified from M. thermolithotrophicus, no tag; modelled residues 2-330 (Rossmann 2-183, knot 184-330); dodecamer 438 kDa
T1 sequence (A0A8X6EH16 1-330): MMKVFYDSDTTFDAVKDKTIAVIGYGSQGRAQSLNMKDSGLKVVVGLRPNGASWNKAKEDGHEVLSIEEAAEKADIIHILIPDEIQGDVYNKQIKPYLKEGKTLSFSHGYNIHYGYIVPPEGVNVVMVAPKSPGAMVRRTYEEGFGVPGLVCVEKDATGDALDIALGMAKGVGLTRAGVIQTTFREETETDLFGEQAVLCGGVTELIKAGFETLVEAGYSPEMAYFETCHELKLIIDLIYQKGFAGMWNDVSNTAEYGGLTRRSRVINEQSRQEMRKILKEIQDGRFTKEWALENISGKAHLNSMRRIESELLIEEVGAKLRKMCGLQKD

[1] = target: the molecule itself; assay: native gel or EMSA; hrCN-PAGE, 5 to 15% gradient gel, 2 ug enriched MtKARI; cathode buffer with 0.05% sodium deoxycholate and 0.01% dodecyl maltoside, pH 7

In the case of `O=C(O)[C@H](O)[C@@H](O)C(=O)O` [L-tartrate], the X-ray crystallography (MtKARI) is reported as “tartrate takes the vacant position of the nicotinamide group of NADPH and is loosely bound”.

B1: Ketol-acid reductoisomerase from Methanothermococcus thermolithotrophicus (enzyme, UniProt A0A8X6EH16 1-330, looked up)
chain: T1 sequence (A0A8X6EH16 1-330)
notes: ketol-acid reductoisomerase (EC 1.1.1.86), class I, of Methanothermococcus thermolithotrophicus DSM 2095; native enzyme; model with Rossmann domain (2-183) and knot domain (184-330); stretch 47-53 is printed as LRPNGAS; Native protein without tags, identified by MALDI-TOF-MS; The crystals held NADP and Mg2+ (close state) or NADP and tartrate (open state); also called MtKARI; KARI; source: …
With B1 the “stoichiometry N” value [1] was 12.
